Assay results reported in patent US12258327B2, “5-membered heteroaryl-containing aminopyridine compounds as EGFR inhibitors” (YUHAN CORPORATION, priority 2021, dated 2025).
Like-named read-outs stand apart in the source and are kept apart here.

Key:
EGFR del19/T790M/C797S = EGFR del19/T790M/C797S (Homo sapiens, UniProt P00533, C797S/DEL746-750/T790M); assay: Biochemical EGFR kinase assay (Lance Ultra TR-FRET), triple mutant del19/T790M/C797S
How it was run: (§1)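 Kinase activity is measured by TR-FRET phosphopeptide detection. Compounds span 0.003 μM to 10 μM; the 1 h reaction at room temperature is quenched with EDTA, then labelled antibody (2 nM) is incubated 60 min before reading.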

EGFR L858R/C797S = EGFR L858R/C797S (Homo sapiens, UniProt P00533, C797S/L858R); assay: Biochemical EGFR kinase assay (Lance Ultra TR-FRET), double mutant L858R/C797S
Chain of EGFR L858R/C797S (P00533 25-1210 C797S/L858R): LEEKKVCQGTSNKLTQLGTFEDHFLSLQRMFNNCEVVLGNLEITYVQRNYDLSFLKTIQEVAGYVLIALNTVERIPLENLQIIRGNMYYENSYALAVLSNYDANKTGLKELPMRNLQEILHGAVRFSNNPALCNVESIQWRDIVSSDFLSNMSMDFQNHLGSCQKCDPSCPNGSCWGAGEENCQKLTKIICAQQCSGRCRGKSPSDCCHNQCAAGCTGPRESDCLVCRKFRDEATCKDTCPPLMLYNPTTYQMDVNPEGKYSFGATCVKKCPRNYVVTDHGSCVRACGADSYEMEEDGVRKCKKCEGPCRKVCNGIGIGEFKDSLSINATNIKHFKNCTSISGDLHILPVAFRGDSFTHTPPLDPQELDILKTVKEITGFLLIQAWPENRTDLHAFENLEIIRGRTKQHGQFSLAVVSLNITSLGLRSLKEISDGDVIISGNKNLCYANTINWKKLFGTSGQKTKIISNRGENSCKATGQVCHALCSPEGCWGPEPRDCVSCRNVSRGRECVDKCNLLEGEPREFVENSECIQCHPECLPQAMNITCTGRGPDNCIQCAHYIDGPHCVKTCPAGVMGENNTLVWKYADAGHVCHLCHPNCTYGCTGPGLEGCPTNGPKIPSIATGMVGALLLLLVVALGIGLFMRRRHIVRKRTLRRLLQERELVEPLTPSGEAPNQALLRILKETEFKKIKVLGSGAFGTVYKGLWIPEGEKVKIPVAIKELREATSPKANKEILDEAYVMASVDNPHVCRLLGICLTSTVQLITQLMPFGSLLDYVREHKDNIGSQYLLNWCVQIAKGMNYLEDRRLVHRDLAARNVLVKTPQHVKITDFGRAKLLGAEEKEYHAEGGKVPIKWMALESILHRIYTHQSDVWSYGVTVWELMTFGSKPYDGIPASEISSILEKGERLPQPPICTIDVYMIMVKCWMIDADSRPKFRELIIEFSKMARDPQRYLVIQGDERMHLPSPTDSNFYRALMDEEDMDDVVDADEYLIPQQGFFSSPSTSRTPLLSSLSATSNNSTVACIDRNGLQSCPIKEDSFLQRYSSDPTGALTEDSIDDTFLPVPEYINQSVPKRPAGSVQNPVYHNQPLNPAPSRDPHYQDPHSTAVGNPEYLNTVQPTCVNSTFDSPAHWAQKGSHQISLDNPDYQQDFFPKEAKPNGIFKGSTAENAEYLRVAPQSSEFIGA
How it was run: as §1

EGFR wildtype (WT) = EGFR wildtype (WT) (Homo sapiens, UniProt P00533); assay: Biochemical EGFR kinase assay (Lance Ultra TR-FRET), wildtype
Chain of EGFR wildtype (WT) (P00533 25-1210): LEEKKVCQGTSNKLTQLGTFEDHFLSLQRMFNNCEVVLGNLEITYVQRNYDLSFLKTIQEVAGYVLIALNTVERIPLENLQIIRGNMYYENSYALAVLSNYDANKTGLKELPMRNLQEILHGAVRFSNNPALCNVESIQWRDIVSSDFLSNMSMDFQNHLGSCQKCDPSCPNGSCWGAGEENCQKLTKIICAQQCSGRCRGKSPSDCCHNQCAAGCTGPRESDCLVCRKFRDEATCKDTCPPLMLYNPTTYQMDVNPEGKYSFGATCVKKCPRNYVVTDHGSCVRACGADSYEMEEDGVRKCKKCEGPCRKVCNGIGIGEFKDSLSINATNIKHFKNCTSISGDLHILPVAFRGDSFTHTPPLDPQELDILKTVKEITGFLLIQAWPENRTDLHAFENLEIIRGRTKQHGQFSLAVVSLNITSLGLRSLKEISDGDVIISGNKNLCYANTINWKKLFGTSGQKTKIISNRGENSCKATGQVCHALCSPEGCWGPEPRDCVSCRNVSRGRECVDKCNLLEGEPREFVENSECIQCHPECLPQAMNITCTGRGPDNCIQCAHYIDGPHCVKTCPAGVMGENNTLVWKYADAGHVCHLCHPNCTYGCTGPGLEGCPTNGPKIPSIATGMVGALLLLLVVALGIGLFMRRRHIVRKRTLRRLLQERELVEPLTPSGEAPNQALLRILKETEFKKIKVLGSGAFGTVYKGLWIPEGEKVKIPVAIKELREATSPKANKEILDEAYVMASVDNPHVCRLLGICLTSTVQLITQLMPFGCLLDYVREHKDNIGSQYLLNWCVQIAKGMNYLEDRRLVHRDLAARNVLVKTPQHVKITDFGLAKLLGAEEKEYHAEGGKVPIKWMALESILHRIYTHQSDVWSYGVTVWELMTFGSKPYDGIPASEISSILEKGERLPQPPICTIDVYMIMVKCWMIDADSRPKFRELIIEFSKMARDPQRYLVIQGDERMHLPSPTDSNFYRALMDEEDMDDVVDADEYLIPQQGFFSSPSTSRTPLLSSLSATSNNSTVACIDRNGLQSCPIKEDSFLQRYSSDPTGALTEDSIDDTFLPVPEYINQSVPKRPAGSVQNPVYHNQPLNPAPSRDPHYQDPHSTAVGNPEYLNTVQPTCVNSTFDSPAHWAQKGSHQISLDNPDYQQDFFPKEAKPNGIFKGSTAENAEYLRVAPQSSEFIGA
How it was run: as §1

EGFR del19/C797S = EGFR del19/C797S (Homo sapiens, UniProt P00533, C797S/DEL746-750); assay: Biochemical EGFR kinase assay (Lance Ultra TR-FRET), double mutant del19/C797S
How it was run: as §1

EGFR L858R/T790M/C797S = EGFR L858R/T790M/C797S (Homo sapiens, UniProt P00533, C797S/L858R/T790M); assay: Biochemical EGFR kinase assay (Lance Ultra TR-FRET), triple mutant L858R/T790M/C797S
Chain of EGFR L858R/T790M/C797S (P00533 25-1210 T790M/C797S/L858R): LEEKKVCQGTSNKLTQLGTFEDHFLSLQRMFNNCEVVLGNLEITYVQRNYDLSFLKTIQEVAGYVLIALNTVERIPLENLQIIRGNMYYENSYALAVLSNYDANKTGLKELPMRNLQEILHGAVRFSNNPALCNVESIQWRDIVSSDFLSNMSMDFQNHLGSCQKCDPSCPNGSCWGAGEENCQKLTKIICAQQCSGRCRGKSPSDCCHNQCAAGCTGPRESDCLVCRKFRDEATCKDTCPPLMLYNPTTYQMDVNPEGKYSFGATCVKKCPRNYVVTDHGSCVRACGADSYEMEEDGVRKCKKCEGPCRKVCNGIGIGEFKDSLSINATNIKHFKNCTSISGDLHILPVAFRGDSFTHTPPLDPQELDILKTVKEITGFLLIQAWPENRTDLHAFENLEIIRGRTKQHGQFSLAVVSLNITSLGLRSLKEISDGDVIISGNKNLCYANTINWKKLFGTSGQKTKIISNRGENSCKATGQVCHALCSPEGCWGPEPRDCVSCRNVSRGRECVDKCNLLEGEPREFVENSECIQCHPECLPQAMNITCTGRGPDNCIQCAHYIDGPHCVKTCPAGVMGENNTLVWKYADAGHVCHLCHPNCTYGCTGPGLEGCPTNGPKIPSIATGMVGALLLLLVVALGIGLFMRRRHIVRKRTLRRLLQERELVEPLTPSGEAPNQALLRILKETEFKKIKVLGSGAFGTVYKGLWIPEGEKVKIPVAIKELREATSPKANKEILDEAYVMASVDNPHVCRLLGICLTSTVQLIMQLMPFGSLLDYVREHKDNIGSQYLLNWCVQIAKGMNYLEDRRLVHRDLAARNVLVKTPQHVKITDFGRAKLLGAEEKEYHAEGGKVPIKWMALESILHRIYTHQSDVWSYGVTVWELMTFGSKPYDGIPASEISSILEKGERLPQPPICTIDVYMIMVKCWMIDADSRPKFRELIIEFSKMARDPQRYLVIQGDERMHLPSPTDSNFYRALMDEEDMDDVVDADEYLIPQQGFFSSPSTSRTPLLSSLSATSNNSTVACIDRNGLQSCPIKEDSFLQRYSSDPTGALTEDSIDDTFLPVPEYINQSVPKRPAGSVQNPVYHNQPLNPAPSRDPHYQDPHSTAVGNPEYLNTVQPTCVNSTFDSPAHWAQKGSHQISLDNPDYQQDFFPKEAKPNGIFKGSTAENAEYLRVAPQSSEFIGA
How it was run: as §1

[1] = Km ATP, read-out: IC50 del19/T790M/C797S, Km ATP
[2] = Km ATP, read-out: IC50 L858R/C797S, Km ATP
[3] = Km ATP, read-out: IC50 WT, Km ATP
[4] = Km ATP, read-out: IC50 del19/C797S, Km ATP
[5] = Km ATP, read-out: IC50 L858R/T790M/C797S, Km ATP
[6] = IC50 del19/T790M/C797S (nM) 100 μM ATP, 100 μM ATP
[7] = Km ATP, read-out: IC50 del19/T790M/C797S (nM) Km ATP
[8] = IC50 L858R/C797S (nM) 100 μM ATP, 100 μM ATP
[9] = Km ATP, read-out: IC50 L858R/C797S (nM) Km ATP
[10] = IC50 WT (nM) 100 μM ATP, 100 μM ATP
[11] = Km ATP, read-out: IC50 WT (nM) Km ATP
[12] = IC50 del19/C797S (nM) 100 μM ATP, 100 μM ATP
[13] = Km ATP, read-out: IC50 del19/C797S (nM) Km ATP
[14] = IC50 L858R/T790M/C797S (nM) 100 μM ATP, 100 μM ATP
[15] = Km ATP, read-out: IC50 L858R/T790M/C797S (nM) Km ATP

Chain of EGFR del19/T790M/C797S (P00533 with tags, fused parts or gaps DEL746-750/T790M/C797S): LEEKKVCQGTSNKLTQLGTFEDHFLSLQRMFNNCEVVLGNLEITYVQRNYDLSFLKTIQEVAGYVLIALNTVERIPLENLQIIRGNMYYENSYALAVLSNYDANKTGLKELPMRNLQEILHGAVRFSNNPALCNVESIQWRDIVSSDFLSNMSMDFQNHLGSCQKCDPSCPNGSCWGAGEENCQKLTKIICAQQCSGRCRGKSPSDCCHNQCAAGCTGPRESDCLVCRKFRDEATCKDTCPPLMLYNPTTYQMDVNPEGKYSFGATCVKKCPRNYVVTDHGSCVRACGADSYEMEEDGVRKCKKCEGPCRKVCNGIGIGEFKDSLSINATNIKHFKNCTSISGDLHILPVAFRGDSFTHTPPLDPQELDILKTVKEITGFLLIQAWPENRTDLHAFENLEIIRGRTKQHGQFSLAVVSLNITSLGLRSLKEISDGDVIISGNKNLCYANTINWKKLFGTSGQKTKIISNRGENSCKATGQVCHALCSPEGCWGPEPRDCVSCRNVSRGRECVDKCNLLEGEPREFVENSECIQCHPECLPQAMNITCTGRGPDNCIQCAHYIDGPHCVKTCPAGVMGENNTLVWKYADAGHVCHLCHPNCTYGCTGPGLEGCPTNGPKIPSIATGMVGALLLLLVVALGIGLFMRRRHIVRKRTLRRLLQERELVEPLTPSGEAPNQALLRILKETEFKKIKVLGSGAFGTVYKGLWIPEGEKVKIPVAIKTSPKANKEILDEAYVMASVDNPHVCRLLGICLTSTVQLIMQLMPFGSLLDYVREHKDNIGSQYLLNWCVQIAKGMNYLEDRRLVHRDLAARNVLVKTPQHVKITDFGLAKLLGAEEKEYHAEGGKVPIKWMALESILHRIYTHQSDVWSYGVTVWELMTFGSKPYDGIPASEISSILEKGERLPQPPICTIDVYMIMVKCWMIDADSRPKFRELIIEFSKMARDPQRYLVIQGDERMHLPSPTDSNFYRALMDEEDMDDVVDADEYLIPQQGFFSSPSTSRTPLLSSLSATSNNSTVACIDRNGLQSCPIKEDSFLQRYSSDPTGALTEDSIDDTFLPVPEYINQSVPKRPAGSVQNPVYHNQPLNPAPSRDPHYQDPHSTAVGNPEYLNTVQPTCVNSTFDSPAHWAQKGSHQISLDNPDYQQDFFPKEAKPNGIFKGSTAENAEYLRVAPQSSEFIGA

IC50 (EGFR del19/T790M/C797S; [1]) [nM] | IC50 (EGFR L858R/C797S; [2]) [nM] | IC50 (EGFR wildtype (WT); [3]) [nM] | IC50 (EGFR del19/C797S; [4]) [nM] | IC50 (EGFR L858R/T790M/C797S; [5]) [nM] | IC50 (EGFR del19/T790M/C797S; [6]) [nM] | IC50 (EGFR del19/T790M/C797S; [7]) [nM] | IC50 (EGFR L858R/C797S; [8]) [nM] | IC50 (EGFR L858R/C797S; [9]) [nM] | IC50 (EGFR wildtype (WT); [10]) [nM] | IC50 (EGFR wildtype (WT); [11]) [nM] | IC50 (EGFR del19/C797S; [12]) [nM] | IC50 (EGFR del19/C797S; [13]) [nM] | IC50 (EGFR L858R/T790M/C797S; [14]) [nM] | IC50 (EGFR L858R/T790M/C797S; [15]) [nM] | IC50 (EGFR del19/T790M/C797S; IC50 del19/T790M/C797S, 100 μM ATP) [nM] | IC50 (EGFR L858R/C797S; IC50 L858R/C797S, 100 μM ATP) [nM] | IC50 (EGFR wildtype (WT); IC50 WT, 100 μM ATP) [nM] | IC50 (EGFR del19/C797S; IC50 del19/C797S, 100 μM ATP) [nM] | IC50 (EGFR L858R/T790M/C797S; IC50 L858R/T790M/C797S, 100 μM ATP) [nM] | SMILES
2.3 | 6.8 | 142 | 11.9 | 2.6 | – | – | – | – | – | – | – | – | – | – | – | – | – | – | – | Cn1nc(-c2cnc(Nc3ccnc(-c4cnn(CC(F)F)c4)n3)cc2N[C@H]2CC[C@@](C)(O)CC2)cc1C(F)(F)F [Example 331, (1s,4s)-4-((2-((2-(1-(2,2-Difluoroethyl)-1H-pyrazol-4-yl)pyrimidin-4-yl)amino)-5-(1-methyl-5-(trifluoromethyl)-1H-pyrazol-3-yl)pyridin-4-yl)amino)-1-methylcyclohexan-1-ol]
– | – | – | – | – | 1.4 | 1.2 | 264 | 5 | > 10000 | 108 | 16.6 | 12.1 | 6.6 | 0.7 | – | – | – | – | – | CN1CC(Nc2cc(Nc3ccnc(-c4cnn(S(=O)(=O)C5CC5)c4)n3)ncc2-c2ccn(C(F)F)n2)CCC1=O (centres unmarked) [Example 37, 5-((2-((2-(1-(Cyclopropylsulfonyl)-1H-pyrazol-4-yl)pyrimidin-4-yl)amino)-5-(1-(difluoromethyl)-1H-pyrazol-3-yl)pyridin-4-yl)amino)-1-methylpiperidin-2-one]
– | – | – | – | – | 0.8 | 0.7 | 379 | – | > 10000 | 112 | 30.3 | 21 | 1.3 | 0.4 | – | – | – | – | – | O=S(=O)(C1CC1)n1cc(-c2nccc(Nc3cc(N[C@H]4CC[C@@H](NCCF)CC4)c(-c4csc(N5CCOCC5)n4)cn3)n2)cn1 [Example 126, N^2-(2-(1-(Cyclopropylsulfonyl)-1H-pyrazol-4-yl)pyrimidin-4-yl)-N^4-((1s,4s)-4-((2-fluoroethyl)amino)cyclohexyl)-5-(2-morpholinothiazol-4-yl)pyridine-2,4-diamine]
– | – | – | – | – | 3.8 | 4.4 | > 10000 | 42.9 | > 10000 | 5.5 | 343 | 460 | 29.9 | 4.9 | – | – | – | – | – | CCS(=O)(=O)n1ccc(-c2nccc(Nc3cc(N[C@H]4CC[C@@](C)(O)CC4)c(-c4ccn(C(F)F)n4)cn3)n2)n1 [Example 309, (1s,4s)-4-((5-(1-(Difluoromethyl)-1H-pyrazol-3-yl)-2-((2-(1-(ethylsulfonyl)-1H-pyrazol-3-yl)pyrimidin-4-yl)amino)pyridin-4-yl)amino)-1-methylcyclohexan-1-ol]
– | – | – | – | – | 0.6 | 0.6 | 6.5 | 0.8 | > 10000 | 4.5 | 0.8 | 0.5 | 0.5 | 0.1 | – | – | – | – | – | Cn1ccc(-c2cnc(Nc3ccnc(-c4cnn(S(=O)(=O)C5CC5)c4)n3)cc2NC[C@H]2CC[C@H](O)CC2)n1 [Example 47, (1r,4r)-4-(((2-((2-(1-(Cyclopropylsulfonyl)-1H-pyrazol-4-yl)pyrimidin-4-yl)amino)-5-(1-methyl-1H-pyrazol-3-yl)pyridin-4-yl)amino)methyl)cyclohexan-1-ol]
– | – | – | – | – | – | 0.7 | 218 | 10.8 | > 10000 | 144 | 18.5 | 20.4 | – | 0.4 | – | – | – | – | – | O=S(=O)(C1CC1)n1cc(-c2nccc(Nc3cc(N[C@H]4CC[C@](O)(CO)CC4)c(-c4csc(N5CCOCC5)n4)cn3)n2)cn1 [Example 125, (1s,4s)-4-((2-((2-(1-(Cyclopropylsulfonyl)-1H-pyrazol-4-yl)pyrimidin-4-yl)amino)-5-(2-morpholinothiazol-4-yl)pyridin-4-yl)amino)-1-(hydroxymethyl)cyclohexan-1-ol]
1.6 | 4.6 | 98.8 | 7.9 | 0.7 | – | – | – | – | – | – | – | – | – | – | – | – | – | – | – | Cc1nn(CC(F)(F)F)cc1-c1nccc(Nc2cc(N[C@H]3CC[C@@](C)(O)CC3)c(-c3ccn(CC(F)F)n3)cn2)n1 [Example 335, (1s,4s)-4-((5-(1-(2,2-Difluoroethyl)-1H-pyrazol-3-yl)-2-((2-(3-methyl-1-(2,2,2-trifluoroethyl)-1H-pyrazol-4-yl)pyrimidin-4-yl)amino)pyridin-4-yl)amino)-1-methylcyclohexan-1-ol]
– | – | – | – | – | 22.1 | – | 206 | – | > 10000 | – | 26.9 | – | 13.8 | – | – | – | – | – | – | CN(CC(F)F)C[C@H]1CC[C@@H](Nc2cc(Nc3ccnc(-c4cnn(S(=O)(=O)C5CC5)c4)n3)ncc2-c2ccn(C(F)F)n2)CC1 [Example 206, N^2-(2-(1-(Cyclopropylsulfonyl)-1H-pyrazol-4-yl)pyrimidin-4-yl)-N^4-((1s,4s)-4-(((2,2-difluoroethyl)(methyl)amino)methyl)cyclohexyl)-5-(1-(difluoromethyl)-1H-pyrazol-3-yl)pyridine-2,4-diamine]
– | – | – | – | – | 0.2 | 0.3 | 7.8 | 1.1 | > 10000 | 6.1 | 0.3 | 0.3 | 0.2 | 0.1 | – | – | – | – | – | O=S(=O)(C1CC1)n1cc(-c2nccc(Nc3cc(N[C@H]4CC[C@](O)(CO)CC4)c(-c4ccn(C(F)F)n4)cn3)n2)cn1 [Example 188, (1s,4s)-4-((2-((2-(1-(Cyclopropylsulfonyl)-1H-pyrazol-4-yl)pyrimidin-4-yl)amino)-5-(1-(difluoromethyl)-1H-pyrazol-3-yl)pyridin-4-yl)amino)-1-(hydroxymethyl)cyclohexan-1-ol]
0.6 | 18.3 | 208 | 15.4 | 1.6 | – | – | – | – | – | – | – | – | – | – | – | – | – | – | – | C[C@]1(O)CC[C@@H](Nc2nc(Nc3ccnc(-c4cnn(S(=O)(=O)C5CC5)c4)c3)ncc2-c2ccn(CCC(F)(F)F)n2)CC1 [Example 359, (1s,4s)-4-((2-((2-(1-(Cyclopropylsulfonyl)-1H-pyrazol-4-yl)pyridin-4-yl)amino)-5-(1-(3,3,3-trifluoropropyl)-1H-pyrazol-3-yl)pyrimidin-4-yl)amino)-1-methylcyclohexan-1-ol]
– | – | – | – | – | – | – | – | – | – | – | – | – | – | – | 2 | 2540 | > 10000 | 135 | 13.1 | C[C@]1(O)CC[C@@H](Nc2cc(Nc3ccnc(-c4cnn(S(=O)(=O)C5CC5)c4)c3)ncc2-c2ccn(C(F)F)n2)CC1 [Example 354, (1s,4s)-4-((2-((2-(1-(Cyclopropylsulfonyl)-1H-pyrazol-4-yl)pyridin-4-yl)amino)-5-(1-(difluoromethyl)-1H-pyrazol-3-yl)pyridin-4-yl)amino)-1-methylcyclohexan-1-ol]
– | – | – | – | – | 0.2 | 0.2 | 0.8 | 0.2 | > 10000 | 1 | 0.2 | 0.2 | 0.2 | 0.1 | – | – | – | – | – | Cn1ccc(-c2cnc(Nc3ccnc(-c4cnn(S(=O)(=O)C5CC5)c4)n3)cc2N[C@H]2CC[C@]3(CCC(=O)N3)CC2)n1 [Example 44, (5s,8s)-8-((2-((2-(1-(Cyclopropylsulfonyl)-1H-pyrazol-4-yl)pyrimidin-4-yl)amino)-5-(1-methyl-1H-pyrazol-3-yl)pyridin-4-yl)amino)-1-azaspiro[4.5]decan-2-one]
– | – | – | – | – | – | 0.3 | – | 10.4 | – | 752 | – | 264 | – | 0.04 | – | – | – | – | – | C[C@]1(O)CC[C@@H](Nc2cc(Nc3ccnc(-c4cnc5c(c4)CCCO5)n3)ncc2-c2ccn(C(F)F)n2)CC1 [Example 176, (1s,4s)-4-((5-(1-(Difluoromethyl)-1H-pyrazol-3-yl)-2-((2-(3,4-dihydro-2H-pyrano[2,3-b]pyridin-6-yl)pyrimidin-4-yl)amino)pyridin-4-yl)amino)-1-methylcyclohexan-1-ol]
– | – | – | – | – | 1.2 | 0.9 | 119 | 6.7 | > 10000 | 109 | 11.9 | 9.1 | 1.8 | 0.6 | – | – | – | – | – | O=S(=O)(C1CC1)n1cc(-c2nccc(Nc3cc(NC4CCC(F)(CO)CC4)c(-c4ccn(C(F)F)n4)cn3)n2)cn1 (centres unmarked) [Example 190, (4-((2-((2-(1-(Cyclopropylsulfonyl)-1H-pyrazol-4-yl)pyrimidin-4-yl)amino)-5-(1-(difluoromethyl)-1H-pyrazol-3-yl)pyridin-4-yl)amino)-1-fluorocyclohexyl)methanol]
